Test results as given in the supplement of paper PMC10307832.

Columns and labels:
Test in all cases: relative viability (nuclei count vs DMSO), 5 days (fraction); higher = more cells survive
NCI-H358 = system: NCI-H358
Procedure, shortened: (§1)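 Lung cancer cell lines were pin-tool dosed in 1536-well plates on the day after seeding, with either a lone drug or a fixed anchor-drug dose plus five library-drug doses (not always all listed) in √10 steps. Nuclei were counted on 4× images after 5 days. Relative viability is the ratio of treated-well to vehicle-well nuclei counts, with each value a median of duplicate plates.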

NCI-H596 = system: NCI-H596
Procedure, shortened: as §1

EKVX = system: EKVX
Procedure, shortened: as §1

NCI-H1975 = system: NCI-H1975
Procedure, shortened: as §1

NCI-H441 = system: NCI-H441
Procedure, shortened: as §1

NCI-H1437 = system: NCI-H1437
Procedure, shortened: as §1

NCI-H650 = system: NCI-H650
Procedure, shortened: as §1

NCI-H23 = system: NCI-H23
Procedure, shortened: as §1

201T = system: 201T
Procedure, shortened: as §1

NCI-H1792 = system: NCI-H1792
Procedure, shortened: as §1

SK-MES-1 = system: SK-MES-1
Procedure, shortened: as §1

HCC-827 = system: HCC-827
Procedure, shortened: as §1

HCC-44 = system: HCC-44
Procedure, shortened: as §1

NCI-H838 = system: NCI-H838
Procedure, shortened: as §1

HARA = system: HARA
Procedure, shortened: as §1

BEN = system: BEN
Procedure, shortened: as §1

COR-L23 = system: COR-L23
Procedure, shortened: as §1

HCC-15 = system: HCC-15
Procedure, shortened: as §1

A-427 = system: A-427
Procedure, shortened: as §1

COc1cc2nccc(Oc3ccc(NC(=O)Nc4cc(C)on4)c(Cl)c3)c2cc1OC [Tivozanib] + C[C@]1(O)C[C@@H](c2nc(-c3ccc4ccc(-c5ccccc5)nc4c3)c3c(N)nccn32)C1 [Linsitinib] (partner 1 µM)
relative viability (NCI-H358; first compound 0.005 µM): 0.765
relative viability (NCI-H358; first compound 0.01581 µM): 0.849
relative viability (NCI-H358; first compound 0.05 µM): 0.718
relative viability (NCI-H358; first compound 0.1581 µM): 0.695
relative viability (NCI-H358; first compound 0.5 µM): 0.782
relative viability (NCI-H596; first compound 0.005 µM): 1.1
relative viability (NCI-H596; first compound 0.01581 µM): 1.03
relative viability (NCI-H596; first compound 0.05 µM): 0.953
relative viability (NCI-H596; first compound 0.1581 µM): 0.952
relative viability (NCI-H596; first compound 0.5 µM): 1.01
relative viability (EKVX; first compound 0.005 µM): 0.95
relative viability (EKVX; first compound 0.01581 µM): 0.931
relative viability (EKVX; first compound 0.05 µM): 1.07
relative viability (EKVX; first compound 0.1581 µM): 1.07
relative viability (EKVX; first compound 0.5 µM): 1.09
relative viability (NCI-H1975; first compound 0.005 µM): 0.976
relative viability (NCI-H1975; first compound 0.01581 µM): 0.893
relative viability (NCI-H1975; first compound 0.05 µM): 0.956
relative viability (NCI-H1975; first compound 0.1581 µM): 0.784
relative viability (NCI-H1975; first compound 0.5 µM): 0.916
relative viability (NCI-H441; first compound 0.005 µM): 0.588
relative viability (NCI-H441; first compound 0.01581 µM): 0.56
relative viability (NCI-H441; first compound 0.05 µM): 0.559
relative viability (NCI-H441; first compound 0.1581 µM): 0.481
relative viability (NCI-H441; first compound 0.5 µM): 0.559
relative viability (NCI-H1437; first compound 0.005 µM): 1.02
relative viability (NCI-H1437; first compound 0.01581 µM): 0.989
relative viability (NCI-H1437; first compound 0.05 µM): 0.969
relative viability (NCI-H1437; first compound 0.1581 µM): 0.947
relative viability (NCI-H1437; first compound 0.5 µM): 1
relative viability (NCI-H650; first compound 0.005 µM): 0.671
relative viability (NCI-H650; first compound 0.01581 µM): 0.992
relative viability (NCI-H650; first compound 0.05 µM): 0.859
relative viability (NCI-H650; first compound 0.1581 µM): 0.736
relative viability (NCI-H650; first compound 0.5 µM): 0.542
relative viability (NCI-H23; first compound 0.005 µM): 0.521
relative viability (NCI-H23; first compound 0.01581 µM): 0.534
relative viability (NCI-H23; first compound 0.05 µM): 0.64
relative viability (NCI-H23; first compound 0.1581 µM): 0.317
relative viability (NCI-H23; first compound 0.5 µM): 0.534
relative viability (201T; first compound 0.005 µM): 1.1
relative viability (201T; first compound 0.01581 µM): 0.984
relative viability (201T; first compound 0.05 µM): 1.06
relative viability (201T; first compound 0.1581 µM): 0.937
relative viability (201T; first compound 0.5 µM): 1.02
relative viability (NCI-H1792; first compound 0.005 µM): 0.535
relative viability (NCI-H1792; first compound 0.01581 µM): 0.581
relative viability (NCI-H1792; first compound 0.05 µM): 0.534
relative viability (NCI-H1792; first compound 0.1581 µM): 0.698
relative viability (NCI-H1792; first compound 0.5 µM): 0.592
relative viability (SK-MES-1; first compound 0.005 µM): 1.08
relative viability (SK-MES-1; first compound 0.01581 µM): 1.07
relative viability (SK-MES-1; first compound 0.05 µM): 1.05
relative viability (SK-MES-1; first compound 0.1581 µM): 1.14
relative viability (SK-MES-1; first compound 0.5 µM): 1.07
relative viability (HCC-827; first compound 0.005 µM): 0.969
relative viability (HCC-827; first compound 0.01581 µM): 0.942
relative viability (HCC-827; first compound 0.05 µM): 0.944
relative viability (HCC-827; first compound 0.1581 µM): 1.04
relative viability (HCC-827; first compound 0.5 µM): 0.965
relative viability (HCC-44; first compound 0.005 µM): 0.66
relative viability (HCC-44; first compound 0.01581 µM): 0.687
relative viability (HCC-44; first compound 0.05 µM): 0.641
relative viability (HCC-44; first compound 0.1581 µM): 0.679
relative viability (HCC-44; first compound 0.5 µM): 0.685
relative viability (NCI-H838; first compound 0.005 µM): 0.963
relative viability (NCI-H838; first compound 0.01581 µM): 1.04
relative viability (NCI-H838; first compound 0.05 µM): 1.11
relative viability (NCI-H838; first compound 0.5 µM): 0.942
relative viability (HARA; first compound 0.005 µM): 0.915
relative viability (HARA; first compound 0.01581 µM): 0.838
relative viability (HARA; first compound 0.05 µM): 1.11
relative viability (HARA; first compound 0.1581 µM): 1.01
relative viability (HARA; first compound 0.5 µM): 0.99
relative viability (BEN; first compound 0.005 µM): 0.995
relative viability (BEN; first compound 0.01581 µM): 0.871
relative viability (BEN; first compound 0.05 µM): 0.984
relative viability (BEN; first compound 0.5 µM): 0.912
relative viability (COR-L23; first compound 0.005 µM): 0.848
relative viability (COR-L23; first compound 0.01581 µM): 0.886
relative viability (COR-L23; first compound 0.05 µM): 0.994
relative viability (COR-L23; first compound 0.1581 µM): 0.887
relative viability (COR-L23; first compound 0.5 µM): 0.819
relative viability (HCC-15; first compound 0.005 µM): 0.9
relative viability (HCC-15; first compound 0.01581 µM): 0.878
relative viability (HCC-15; first compound 0.05 µM): 0.9
relative viability (HCC-15; first compound 0.1581 µM): 0.875
relative viability (HCC-15; first compound 0.5 µM): 0.897
relative viability (A-427; first compound 0.005 µM): 1.09
relative viability (A-427; first compound 0.01581 µM): 1.1
relative viability (A-427; first compound 0.05 µM): 1.23
relative viability (A-427; first compound 0.1581 µM): 0.987
relative viability (A-427; first compound 0.5 µM): 1.07
